Reference: the NIST ThermoML archive (doi:10.1021/acs.jced.7b00712)
Numbers after ± are expanded uncertainties.

Details: Liquid, Brillouin light scattering

CCCCCCCC [octane]
Details | speed of sound [m/s]
296.97 K, 100 kPa | 1173 ± 15
297.28 K, 4000 kPa | 1196.5 ± 16
297.34 K, 7000 kPa | 1222 ± 16
297.35 K, 12000 kPa | 1250.8 ± 16
297.38 K, 10000 kPa | 1242.7 ± 16
303.33 K, 7000 kPa | 1199.7 ± 16
303.38 K, 10000 kPa | 1213.7 ± 16
303.42 K, 12000 kPa | 1233 ± 16
303.53 K, 4000 kPa | 1172.7 ± 15
303.61 K, 100 kPa | 1151.7 ± 15
318.11 K, 10000 kPa | 1164.8 ± 15
318.3 K, 4000 kPa | 1121.2 ± 15
318.35 K, 7000 kPa | 1141.4 ± 15
318.37 K, 100 kPa | 1089.5 ± 14
318.37 K, 12000 kPa | 1184.5 ± 15
332.26 K, 4000 kPa | 1066.7 ± 14
332.32 K, 10000 kPa | 1108.6 ± 14
332.33 K, 7000 kPa | 1089.1 ± 14
332.5 K, 100 kPa | 1029.1 ± 13
332.56 K, 12000 kPa | 1128.3 ± 15
347.29 K, 7000 kPa | 1031.9 ± 13
347.37 K, 10000 kPa | 1053.4 ± 14
347.4 K, 4000 kPa | 1007.2 ± 13
347.46 K, 12000 kPa | 1072.7 ± 14
347.68 K, 100 kPa | 970.1 ± 13
362.12 K, 10000 kPa | 1006.2 ± 13
362.17 K, 7000 kPa | 979.6 ± 13
362.28 K, 4000 kPa | 955.4 ± 12
362.53 K, 100 kPa | 912.3 ± 12
363.67 K, 12000 kPa | 1027.8 ± 13
377.03 K, 4000 kPa | 909.7 ± 12
377.33 K, 7000 kPa | 933.5 ± 12
377.35 K, 10000 kPa | 960.5 ± 12
377.5 K, 100 kPa | 855.4 ± 11
379.75 K, 12000 kPa | 973.9 ± 13
390.8 K, 4000 kPa | 860.1 ± 11
391 K, 7000 kPa | 892.3 ± 12
391.09 K, 10000 kPa | 917.4 ± 12
391.61 K, 100 kPa | 806.4 ± 10
394.67 K, 12000 kPa | 920.8 ± 12
403.71 K, 12000 kPa | 896.1 ± 12
407.38 K, 4000 kPa | 802.1 ± 10
407.45 K, 10000 kPa | 865.2 ± 11
407.46 K, 7000 kPa | 836.9 ± 11
412.59 K, 4000 kPa | 786.2 ± 10
412.65 K, 7000 kPa | 818.8 ± 11
412.71 K, 10000 kPa | 846.7 ± 11
414.33 K, 12000 kPa | 864 ± 11
422.61 K, 10000 kPa | 818.2 ± 11
422.69 K, 12000 kPa | 844.3 ± 11
422.73 K, 4000 kPa | 747.2 ± 9.8
422.88 K, 7000 kPa | 784.5 ± 10
431.77 K, 12000 kPa | 815.2 ± 11
431.82 K, 4000 kPa | 720.1 ± 9.4
431.88 K, 7000 kPa | 754.2 ± 9.9
431.92 K, 10000 kPa | 789.8 ± 10
442.23 K, 4000 kPa | 682.1 ± 8.9
442.49 K, 7000 kPa | 723.8 ± 9.5
442.65 K, 10000 kPa | 755.7 ± 9.9
442.73 K, 12000 kPa | 779.7 ± 10
452.55 K, 4000 kPa | 646.4 ± 8.5
452.64 K, 7000 kPa | 689.9 ± 9
452.77 K, 10000 kPa | 728.1 ± 9.5
452.88 K, 12000 kPa | 750.8 ± 9.8
462.37 K, 4000 kPa | 614.7 ± 8.1
462.45 K, 7000 kPa | 660.1 ± 8.7
462.61 K, 12000 kPa | 724.2 ± 9.4
465.54 K, 10000 kPa | 695.8 ± 9.1
472.05 K, 4000 kPa | 579.7 ± 7.7
472.15 K, 7000 kPa | 631.6 ± 8.3
472.28 K, 10000 kPa | 676.9 ± 8.9
472.38 K, 12000 kPa | 693.8 ± 9.1
482.98 K, 4000 kPa | 543 ± 7.2
483.04 K, 7000 kPa | 599.7 ± 7.9
483.12 K, 10000 kPa | 646.1 ± 8.5
483.14 K, 12000 kPa | 672.7 ± 8.8
493.41 K, 4000 kPa | 503.5 ± 6.7
493.48 K, 7000 kPa | 565.4 ± 7.5
493.62 K, 10000 kPa | 614.7 ± 8.1
493.73 K, 12000 kPa | 645 ± 8.5
502.54 K, 4000 kPa | 477.8 ± 6.4
502.73 K, 7000 kPa | 537.1 ± 7.1
502.95 K, 10000 kPa | 590.5 ± 7.8
503.17 K, 12000 kPa | 616.5 ± 8.1
513 K, 4000 kPa | 439.1 ± 6
513.26 K, 7000 kPa | 506.5 ± 6.8
513.46 K, 10000 kPa | 563.1 ± 7.5
513.67 K, 12000 kPa | 591.5 ± 7.8
522.92 K, 4000 kPa | 407.7 ± 5.7
523.17 K, 12000 kPa | 570.6 ± 7.6
523.46 K, 7000 kPa | 478.6 ± 6.5
523.6 K, 10000 kPa | 533.3 ± 7.1
532.23 K, 4000 kPa | 373.2 ± 5.3
532.36 K, 7000 kPa | 450.6 ± 6.2
532.59 K, 10000 kPa | 511.4 ± 6.8
532.79 K, 12000 kPa | 545.1 ± 7.2
537.4 K, 4000 kPa | 354.7 ± 5.1
537.75 K, 7000 kPa | 436.8 ± 6
538.1 K, 10000 kPa | 497.5 ± 6.7
538.41 K, 12000 kPa | 530.4 ± 7
542.87 K, 4000 kPa | 337.8 ± 5
543.27 K, 12000 kPa | 520.1 ± 6.9
543.83 K, 7000 kPa | 422 ± 5.8
544.52 K, 10000 kPa | 483.1 ± 6.5
546.68 K, 4000 kPa | 325.7 ± 4.8
547.82 K, 7000 kPa | 406.8 ± 5.7
548.6 K, 10000 kPa | 471.5 ± 6.4
549.27 K, 12000 kPa | 505.4 ± 6.7
550.42 K, 4000 kPa | 315.2 ± 4.7
552.01 K, 7000 kPa | 398.1 ± 5.6
552.52 K, 10000 kPa | 465.1 ± 6.3
552.88 K, 12000 kPa | 500.8 ± 6.7
557.27 K, 4000 kPa | 290.5 ± 4.5
558.19 K, 7000 kPa | 380.2 ± 5.4
558.64 K, 10000 kPa | 448 ± 6.1
559.37 K, 12000 kPa | 486.2 ± 6.5
561.2 K, 4000 kPa | 276.7 ± 4.5
561.87 K, 7000 kPa | 372.6 ± 5.3
562.27 K, 10000 kPa | 441.3 ± 6
562.71 K, 12000 kPa | 477.8 ± 6.4
566.82 K, 7000 kPa | 356.5 ± 5.2
566.96 K, 10000 kPa | 430.4 ± 5.9
567.01 K, 4000 kPa | 257.3 ± 4.3
567.1 K, 12000 kPa | 471 ± 6.3
570.16 K, 4000 kPa | 245.6 ± 4.2
570.2 K, 7000 kPa | 347.6 ± 5.1
570.48 K, 10000 kPa | 424 ± 5.8
570.75 K, 12000 kPa | 461 ± 6.2
